Test results: patent EP0726761B1, “MICROPARTICULAR PHARMACEUTICAL COMPOSITIONS IN MICELLAR FORM” (ISOMED, Inc., priority 1993, dated 1995)

Columns and labels:
P388 mouse leukemia = P388 mouse leukemia model, survival time; format: in vivo; conditions: 1.25 mg/kg intraperitoneally on Study Day-1; female mice inoculated with P388 on Day-0
Experimental: The P388 mouse leukemia model was prepared according to the method described by Daoud and Juliano in Cancer Res. 48: 5518 (1986). Female mice were intraperitoneally inoculated with P388 mouse leukemia (1 million cells/0.1 ml) on Study Day-0. The study drugs were intraperitoneally injected on Study Day-1. […]

intestinal membranes = conditions: Tagesson et al., Gut 26:369 (1985); cited from earlier work

Row | Molecule | MEAN SURVIVAL TIME (P388 mouse leukemia) | concentration inducing histopathological damage to intestinal membranes (intestinal membranes)
1 | CC[C@]1(O)C[C@H]2CN(CCc3c([nH]c4ccccc34)[C@@](C(=O)OC)(c3cc4c(cc3OC)N(C=O)[C@H]3[C@@](O)(C(=O)OC)[C@H](OC(C)=O)[C@]5(CC)C=CCN6CC[C@]43[C@@H]65)C2)C1 [Vincristin, vincristin] | 21.2 days | –
2 | sn-1-acyl-3-glycerophosphorylcholine [lyso-PC] | – | 0.01-1 mM
